Measurements published in patent publication US20250009780A1, “AGENTS ENCODING CLDN6 AND CD3 BINDING ELEMENTS FOR TREATING CLDN6-POSITIVE CANCERS” (BIONTECH SE, priority 2021, published 2025).
Read-outs that look alike come from different tables or passages of the source.

What was measured:
[1] = Metabolism of ALC-0159 in vitro and ex vivo; assay type: in vitro ADME, mouse, rat, monkey and human; details: yields N,N-ditetradecylamine; across species
Text: The metabolism of ALC-0159, was examined in vitro using blood, liver S9 fractions and hepatocytes, all from mouse, rat, monkey and human and ex vivo in the rat plasma, urine, feces, and liver from the PK study. […] This hydrolytic metabolism was observed across the species evaluated.

[2] = Rat IV PK study of lipid excipient ALC-0159; assay type: in vivo, Wistar Han rats; details: for half-life: Wistar Han, rat, plasma, iv, 1.96 mg ALC-0159/kg, 1.96 mg ALC-0159/kg single IV
Experimental: BNT142 contains the PEG lipid excipient ALC-0159 in the nanoparticle. […] ALC-0159 was then cleared from plasma with a terminal elimination ty, of 72.7 h. The estimated percent of lipid dose distributed to the liver was ˜20%.

[3] = In vitro metabolic stability, liver microsomes; assay type: in vitro ADME, mouse, rat, monkey, and human; details: 120 min, all species
Experimental: (§1) The in vitro metabolic stability of ALC-0366 (aminolipid) was evaluated in mouse, rat, monkey, and human liver microsomes, S9 fractions, and hepatocytes. ALC-0366 was stable over 120 min in liver microsomes (remaining ALC-0366 >89%) and S9 fractions (remaining ALC-0366 >88%) and over 240 min in hepatocytes (remaining ALC-0366 >94%) in all species and test systems.

[4] = In vitro metabolic stability, hepatocytes; assay type: in vitro ADME, mouse, rat, monkey, and human; details: 240 min, all species
Experimental: as §1

[5] = In vitro metabolic stability, S9 fractions; assay type: in vitro ADME, mouse, rat, monkey, and human; details: 120 min, all species
Experimental: as §1

human PBMCs (T cells) [6] = test: T-cell proliferation assay (CFSE-labeled PBMCs, flow cytometry); assay type: cell-based; details: presence as well as absence of target cells
Text: CFSE-labeled human PBMCs from three healthy donors were co-cultured with CLDN6-positive PA-1 and OV-90 target cells or with CLDN6-negative but control TAA-positive NUGC-4 as well as target-negative MDA-MB-231 control cells in a 12-well culture plate format. An effector-to-target-cell ratio of 10:1 was applied. In addition, PBMCs without (−) target cells were included separately. […] OKT3 antibody (anti-human CD3; black bars) served as positive control for target-independent CD3-driven T-cell proliferation. After 72 h of incubation, the percentages of proliferating T cells were analyzed by flow cytometry.
HEK-293T-17 producer cells were transfected with BNT142 or a control RiboMab-encoding RNA. Supernatants containing RiboMab02.1 or the control RiboMab (specific for an irrelevant TAA) were used as test items. Two concentrations (100 or 1 ng/mL) of RiboMab-containing supernatant were added to co-cultures of carboxyfluorescein succinimidyl ester (CFSE)-labeled human PBMCs and target-positive or -negative cells. PA-1 or OV-90 served as CLDN6-positive and MDA-MB-231 as target-negative cells. CLDN6-negative NUGC-4 cells (expressing the irrelevant TAA) as well as PBMCs in the absence of any target cells were included as further specificity controls. PBMCs from three healthy donors were compared in this assay. After 72 h of incubation, T cells were analyzed by flow cytometry to determine target-dependent proliferation.

human PBMCs (T cells) [7] = test: T-cell activation assay (CD69/CD25, flow cytometry); assay type: cell-based; details: with and without target cells (data not shown)
Experimental: Human PBMCs from three healthy donors (effector cells) were cultured in the presence and absence of CLDN6-positive PA-1 cells (target cells) at a 10:1 effector-to-target-cell ratio. RiboMab02.1-containing mouse serum was serially-diluted (10-fold, 10-point; range: 4.0×10^−6 to 4,000 ng/mL) prior to use in the assay. After 48 h of co-incubation, cells were stained with anti-CD5, anti-CD69 and anti-CD25 antibodies for flow cytometric analysis of T cells. Shown here is the total T-cell activation normalized to samples incubated with mock serum from Luc_RNA-LNP-treated mice. Percentages of activated T cells are shown for each individual donor (left) and for all three donors as mean (right). Filled symbols represent values with and black, open symbols without target cells.
RiboMab02.1-containing as well as mock serum samples were obtained from mice administered either with BNT142 or luciferase encoding RNA-LNP (Luc_RNA-LNP; mock). Human PBMCs from three healthy donors were used as effector cells. Serum samples were serially-diluted (10-fold, 10-point), starting at 4,000 ng/mL, and added to PBMCs cultured alone or together with CLDN6-positive PA-1 target cells at an effector-to-target-cell ratio of 10:1. After 48 h of incubation, T cells were analyzed by flow cytometry for surface expression of the early and late activation markers CD69 and CD25, respectively. […] OKT3 positive control led to >50% T-cell activation with and without target cells (data not shown). Upregulation of CD69 on T cells was higher than that of CD25; CD25-positive cells were almost exclusively CD69 double-positive, pointing to an early activation state (data not shown).

human PBMCs = test: In vitro human cytokine release (multiplex ELISA on T-cell activation assay supernatants); assay type: cell-based; details: positive control
Experimental: Cytokine concentration values for each donor (means of technical triplicates) are shown. Filled symbols represent values with target cells while open symbols represent values without target cells.
Cell culture supernatants obtained from the T-cell activation assay were analyzed to investigate the RiboMab02.1-dependent induction of on- and off-target cytokine release. The levels of human pro-inflammatory cytokines IFN-γ, IL-1β, IL-2, IL-6, IL-10 and TNF-α were measured using a customized multiplex ELISA kit.

[8] = test system: human pro-inflammatory cytokines in NSG/PBMC mice; test: Human cytokine release in serum of NSG/PBMC mice; assay type: in vivo, mouse; details: 100 μg reference protein; 6-hour time point
Experimental: An additional non-tumor-bearing (w/o tumor) group administered with 1 μg BNT142 was included. (A) Concentrations of human cytokines (IFN-γ, IL-6, IL-2, IL-10, TNF-α and IL-1β) in mouse serum as determined by multiplex ELISA at the 6- (n=8) and 72-hour (n=4) time points. Data was normalized to saline-administered animals of the respective time points. Horizontal lines indicate medians. Unpaired and paired samples were compared using the Mann-Whitney U test or Wilcoxon signed-rank test, respectively. […] Horizontal lines indicate means.
The human pro-inflammatory cytokines IFN-γ, IL-1β, IL-2, IL-6, IL-10 and TNF-α were measured in serum samples of OV-90 human xenograft tumor-bearing NSG/PBMC mice obtained after 6 and 72 h of the third BNT142 administration (see above). An additional group of tumor-free NSG/PBMC mice was treated with 1 μg BNT142. […] Data were normalized to the values obtained with the saline control group at the respective time points.

CLDN6 = biological target: T1, CLDN6 (Homo sapiens, UniProt P56747); test: Cell microarray off-target binding assay, CLDN6; details: fixed HEK293 cells overexpressing target
T1 construct: expressed in transfected cells
T1 sequence (P56747 1-220): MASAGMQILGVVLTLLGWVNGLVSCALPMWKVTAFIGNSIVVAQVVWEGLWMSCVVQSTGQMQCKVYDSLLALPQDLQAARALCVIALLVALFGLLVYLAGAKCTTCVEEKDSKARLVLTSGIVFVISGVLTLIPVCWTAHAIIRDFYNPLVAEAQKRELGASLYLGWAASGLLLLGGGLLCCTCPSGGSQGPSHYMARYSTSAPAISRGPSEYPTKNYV
Text: (§2) The tribody was screened for binding against fixed human HEK293 cells, individually overexpressing 6,239 different full-length human plasma membrane proteins and cell surface-tethered human secreted proteins, including 371 heterodimers.

CLDN9 = biological target: T2, CLDN9 (Homo sapiens, UniProt O95484); test: Cell microarray off-target binding assay, CLDN9; set-up: individually overexpressing 6,239 different full-length human plasma membrane proteins; expressed in transfected cells; host or cells: fixed human HEK293 cells; details: fixed HEK293 cells overexpressing target
T2 sequence (O95484 1-217): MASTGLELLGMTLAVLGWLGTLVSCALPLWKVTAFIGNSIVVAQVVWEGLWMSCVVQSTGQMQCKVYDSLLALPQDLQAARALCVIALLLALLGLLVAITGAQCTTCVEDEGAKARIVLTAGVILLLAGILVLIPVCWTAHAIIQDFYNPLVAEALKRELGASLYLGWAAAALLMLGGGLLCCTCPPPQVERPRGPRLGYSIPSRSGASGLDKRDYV
Text: as §2

[9] = test system: CLDN6-positive human ovarian carcinoma (OV-90) xenograft; test: OV-90 xenograft model in PBMC-humanized NSG mice; assay type: in vivo, mouse
Experimental: NSG mice bearing advanced SC tumor xenografts of OV-90 cells (mean tumor volume at treatment start=100 mm^3) were engrafted with human PBMCs as effector cells by IP injection. Tumor volume was measured twice per week with a digital caliper. […] (A) Treatment schedule. (B) Tumor volume of individual mice at designated time points. (C) Overview of the median tumor volume per group, each comprising 13 to 14 mice at the start of the study and a minimum of five mice at the last data points. The vertical dotted lines represent the time points of IV administration of test/control items. Four mice (five mice from the 0.1 μg BNT142 group) from all groups were euthanized on Day 38 to obtain samples for ex vivo assays. (D) Number of CD3-positive cells per mm^2 of xenograft tissue as determined by immunohistochemical (IHC) staining using an anti-human CD3 antibody. […] Horizontal lines represent the mean (n=4 to 5). (E) Percentage of CLDN6-positive cells in tumor xenografts of mice from the respective test and control groups as determined by IHC staining using an anti-human CLDN6 antibody. Tumor xenografts were dissected at different time points over the course of the study. Horizontal lines represent the mean (n=8 to 10). […] Reddish-brown staining (dark in the black and white figure) indicates a positive IHC signal while the bluish-purple areas indicate an absence of positive staining (negative IHC signal).
To determine the anti-tumor efficacy of BNT142 in vivo, a CLDN6-positive human ovarian carcinoma (OV-90) xenograft mouse model was used. Briefly, immunodeficient male and female NOD.Cg-Prkd^scid IL2rg^tm1Wjl/SzJ (NSG) mice were subcutaneously (SC) inoculated with human OV-90 ovarian carcinoma cells. Mice with established tumors (mean size ≥30 mm^3) were engrafted intraperitoneally (IP) with human PBMCs from a healthy donor (resulting mouse model annotated as NSG/PBMC). Seven days later, a treatment regimen comprising five weekly single IV bolus injections of BNT142 or control items was initiated. BNT142 was administered at doses of 0.1 or 1 μg (˜0.004 and 0.04 mg/kg) per mouse. […]

[10] = test system: 6,239 full-length human plasma membrane proteins and cell surface-tethered human secreted proteins; test: Cell microarray off-target binding assay, remaining panel; details: fixed HEK293 cells
Text: as §2

**Q.** With `CCCCCCCCCCCCCCN(CCCCCCCCCCCCCC)C(=O)COCCOCCOCCOCCOCCOCCOCCOCCOCCOCCOCCOCCOCCOCCOCCOCCOCCOCCOCCOCCOCCOCCOCCOCCOCCOCCOCCOCCOCCOCCOCCOCCOCCOCCOCCOCCOCCOCCOCCOCCOCCOCCOCCOCCOCCOC` [ALC-0159, 2-[(Polyethylene glycol)-2000]-N,N-ditetradecylacetamide] as the molecule, how does the metabolism [1] read?
**A.** The metabolism was “metabolized relatively slowly by amide bond hydrolysis”.

**Q.** What about the excretion in urine ([2]; IV administration of RNA-LNP) of the same molecule?
**A.** The excretion in urine was “no detectable excretion”.

**Q.** And the “percentage of dose excreted unchanged in feces” value ([2]; IV administration of RNA-LNP)?
**A.** The value was roughly 50%.

**Q.** What about the half-life ([2]; read-out: initial plasma half-life (converted)) of the same molecule?
**A.** Its half-life is 1.72 h.

**Q.** And the half-life ([2]; read-out: terminal elimination half-life in plasma (converted))?
**A.** The half-life was 72.7 h.

**Q.** And the “drop of plasma concentration” value ([2]; during 2 wk study)?
**A.** Its value is “approximately 8,000 fold”.

**Q.** And the “estimated percent of lipid dose distributed to the liver” value ([2]; single IV)?
**A.** Its value is roughly 20%.

**Q.** For `CCCCCCC(CCCC)C(=O)OCCCCCCCCCN(CCCO)CCCCCCCCCOC(=O)C(CCCC)CCCCCC` (centres unmarked) [ALC-0366, ((3-Hydroxypropyl)azanediyl)bis(nonane-9,1-diyl) bis(2-butyloctanoate)], which “remaining ALC-0366” value [3] is on record?
**A.** Its value is greater than 89%.

**Q.** What about the “remaining ALC-0366” value [4] of the same molecule?
**A.** The value was greater than 94%.

**Q.** And the “remaining ALC-0366” value [5]?
**A.** Its value is greater than 88%.

**Q.** With “OKT3: human CD3-specific antibody used as positive control for T-cell activation [reference compound]” as the molecule, how does the “T-cell activation (positive control in proliferation assay)” value (human PBMCs (T cells) [6]) read?
**A.** The value was “strong activation”.

**Q.** What about the T-cell activation (human PBMCs (T cells) [7]) of the same molecule?
**A.** Its T-cell activation is greater than 50%.

**Q.** What about the cytokine release (human PBMCs) of the same molecule?
**A.** Its cytokine release is “induced cytokine release in the presence as well as absence of target cells”.

**Q.** With “reference protein: recombinant purified CD3×(CLDN6)2 tribody reference protein, sequence-identical to RiboMab02.1” as the molecule, how does the “human cytokine elevation in serum” value [8] read?
**A.** The value was “transient but significant elevation of all six cytokines”.

**Q.** And the “interaction with CLDN6” value (CLDN6)?
**A.** Its value is “specific interaction”.

**Q.** And the “interaction with CLDN9” value (CLDN9)?
**A.** The value was “weak off-target interaction”.

**Q.** And the “start of tumor volume shrinkage” value ([9]; 100 μg reference protein IV once weekly x5)?
**A.** The value was “after the third treatment”.

**Q.** What about the “TIL per mm^2 tumor tissue (average)” value ([9]; 100 μg reference protein, 72 h after third injection) of the same molecule?
**A.** The value was 1,542 per mm^2.

**Q.** What about the tumor reduction ([9]; treated groups in contrast to negative control groups) of the same molecule?
**A.** The tumor reduction was “significant tumor reduction”.

**Q.** And the other binding [10]?
**A.** The other binding was “No other binding was observed”.
